Results from patent US5041432A, “Steroid derivatives useful as hypocholesterolemics” (E. I. Du Pont de Nemours and Company, priority 1990, dated 1991).

Tests used:
[1] = molecular target: T1, Lanosta-8,24-dien-3β-ol 14α-methyl demethylase (Rattus norvegicus, UniProt Q64654); experiment: Lanosta-8,24-dien-3β-ol 14α-Methyl Demethylase Inhibition Assay; format: biochemical
T1 construct: rat hepatic microsomal preparations; from tissue; host or cells: rat liver microsomes
T1 sequence (Q64654 1-503): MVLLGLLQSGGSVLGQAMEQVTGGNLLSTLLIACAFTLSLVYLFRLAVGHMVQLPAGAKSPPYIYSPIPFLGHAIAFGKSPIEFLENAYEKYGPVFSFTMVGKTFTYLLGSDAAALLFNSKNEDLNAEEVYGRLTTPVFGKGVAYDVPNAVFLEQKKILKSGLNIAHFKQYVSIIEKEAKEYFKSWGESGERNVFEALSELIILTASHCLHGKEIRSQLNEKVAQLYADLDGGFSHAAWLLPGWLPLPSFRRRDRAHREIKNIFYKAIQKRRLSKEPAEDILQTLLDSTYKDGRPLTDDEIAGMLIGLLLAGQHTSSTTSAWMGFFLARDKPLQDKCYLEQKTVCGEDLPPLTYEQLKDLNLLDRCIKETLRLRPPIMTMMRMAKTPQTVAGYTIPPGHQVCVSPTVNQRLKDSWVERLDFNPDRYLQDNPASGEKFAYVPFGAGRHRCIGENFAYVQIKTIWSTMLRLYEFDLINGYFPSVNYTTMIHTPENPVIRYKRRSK
Procedure: B. Lanosta-8,24-dien-3β-ol 14α-Methyl Demethylase Inhibition Assay
Lanosta-8,24-dien-3β-ol 14α-methyl demethylase activity was determined in rat hepatic microsomal preparations as described in Trzaskos et al., J. Biol. Chem., 261, 16937-16942 (1986). Specifically, test compounds were added to assay mixtures as detergent suspensions with substrate employing 5 mg Triton WR-1339, 100 μM lanost-8-en-3β-ol substrate, and test compounds ranging from 0 to 100 μM. The inhibitor/substrate/detergent suspension was incubated with 2 mg microsomal protein for 5 min at 37° followed by a 10 min incubation initiated by the addition of cofactors required for the reaction. […] Inhibition values are expressed as the amount of compound required to inhibit lanosta-8,24-dien-3β-ol 14α-methyldemethylase activity by 50% relative to that of the controls.

[2] = test system: de novo cholesterol synthesis; experiment: Decreasing de novo cholesterol synthesis (radiolabeled acetate incorporation into cholesterol in CHO cells); format: cell-based, Chinese Hamster (CHO cells); conditions: Cricetulus griseus, 19 h, % of control culture (Control = 100)
Procedure: The ability of the compounds of Formula I to decrease de novo cholesterol synthesis was tested by measuring the incorporation of radiolabeled acetate into cholesterol synthesized in CHO cells. To conduct this experiment, CHO cells were plated at 0.3×10^6 cells per 15×60 mm tissue culture dish in 5 mL of McCoy's modified medium (Gibco Laboratories) containing 1% Cab-O-Sil delipidated FBS and incubated for 48 hours at 37° in a 5% CO2, 95% air environment. Test compounds in a 2.5% suspension of BSA (fatty acid free) in ethanol were then added to the cultures such that the final ethanol and BSA concentrations were 0.5% and 2.5%, respectively. Control cultures received ethanol and BSA alone. […]
The cells were harvested by washing the cells twice with 5 mL of cold PBS and scraping the cells into 1 mL PBS. […] The petroleum ether fractions were dried under nitrogen, resuspended in ethanol, counted and analyzed by reverse phase HPLC at 45° using an Ultrashpere Octyl column (from Altex Scientific Inc., Berkeley, Calif.) with a mobile phase of acetonitrile:methanol:water (44:44:12). The amount of cholesterol synthesis is measured by the amount of radiolabeled acetate incorporated into the cholesterol peak. The percent of cholesterol synthesis in the treated culture is calculated based upon the control culture.

[3] = test system: 3-Hydroxy-3-Methylglutaryl Coenzyme A Reductase (HMGR); experiment: HMGR Suppression Assay (HMGR activity in digitonin-permeabilized CHO cells); format: cell-based, Chinese Hamster (CHO cells); conditions: tested under the same conditions as Table I
Procedure: The ability of the compounds of Formula I to suppress the activity of HMGR, the rate limiting enzyme of cholesterol biosynthesis, was tested as follows. Chinese Hamster Ovary (CHO) cells were divided twice weekly and were maintained in McCoy's 5A medium supplemented with 1% Cab-O-Sil delipidated Fetal Bovine Serum (FBS) (obtained from Gibco Laboratories, Chagrin Falls, Ohio). […] Control cells were treated in an identical fashion to those which received test compound, except they were incubated with the BSA and ethanol suspension only.
Specifically, the medium in each well was aspirated and the cells rinsed with a 50 mM solution of phosphate buffered saline (PBS). One mL of 30 μg/mL of digitonin in CSK buffer (prepared using 10 mM Pipes [piperazine-N,N'-bis(2-ethansulfonic)acid'], 100 mM KCl, 2.5 mM MgCl2, 300 mM sucrose, 1 mM EGTA, pH 6.8) was added to each well and incubated for 10 min at 22° to permeabilize the cells. […] HMGR activity was measured directly by adding 75 μL of PIB buffer (50 mM potassium phosphate, 1 mM Na2 EDTA, 10 mM dithiothreitol, pH 7.4) to each well and incubating the cells for 30 minutes at 37° as described above. […] The assay mixture was incubated for 30 min at 37° and terminated by the addition of 70 μL of [^3 H]-mevalonic acid (35,000 DPM/assay), 0.15 mg/mL in 3 N HCl. The reaction was left to lactonize for an additional 30 min at 37° or overnight at room temperature.
Reaction products were separated by thin layer chromatography on silica gel G (obtained from Analtech, Newark, Del.) developed in an unsaturated environment with acetone:benzene (3:2, v:v). The band corresponding to mevalonolactone was identified by exposure to iodine vapor and was scraped into counting vials. […] Corrections for recovery and blank values were made for each sample. […] Cellular protein was solubilized from culture dishes by the addition of 20 μL of 16 N KOH and assayed directly for protein amount. Suppression values are expressed as the amount of compound required to suppress HMGR activity by 50% relative to that of the controls.

Compound `C=CC(O)[C@@]12CC[C@H]([C@H](C)CCCC(C)C)[C@@]1(C)CCC1=C2CC[C@H]2C(C)(C)[C@@H](O)CC[C@]12C` (single isomer, unassigned) [Compound 11a, 4,4-dimethyl-14α-(1'-hydroxy-2'-propenyl)-5α-cholest-8-en-3β-ol] has an IC50 ([1]; rat hepatic microsomes, 100 μM lanost-8-en-3β-ol substrate, test compounds 0 to 100 μM) of 800 nM and an activity at 1 µM [2] of 1%.

For `CC(C)=CCC[C@@H](C)[C@H]1CC[C@@]2(C)C3=C(CC[C@]12C)[C@@]1(C)CC[C@H](O)C(C)(C)[C@@H]1CC3` [lanosta-8,24-dien-3β-ol], the “effect on measured HMGR activity” value [3] was “without effect” and the “substrate for the demethylase enzyme” value [1] was “clearly served as substrates”.

For `CC(C)CCC[C@@H](C)[C@H]1CC[C@H]2[C@@H]3CC=C4C[C@@H](O)CC[C@]4(C)[C@H]3CC[C@]12C` [cholesterol], the “effect on measured HMGR activity” value [3] was “without effect” and the “effect on lanosta-8,24-dien-3β-ol 14α-methyl demethylase activity” value ([1]; tested under the same conditions as Table I) was “without effect”.

With `CC(C)CCC[C@@H](C)[C@H]1CC[C@@]2(C)C3=C(CC[C@]12C)[C@@]1(C)CC[C@H](O)C(C)(C)[C@@H]1CC3` [lanost-8-en3β-ol, lanost-8-en-3β-ol] the “effect on measured HMGR activity” value [3] was “without effect” and the “substrate for the demethylase enzyme” value [1] was “clearly served as substrates”.
